These results are taken from publication PMC9116245, “New 1,2,3-triazole linked ciprofloxacin-chalcones induce DNA damage by inhibiting human topoisomerase I& II and tubulin polymerization” (Journal of Enzyme Inhibition and Medicinal Chemistry, 2022).

The structures appear in SMILES notation. Where two headings read alike, the source gives them in different places. Some results are limits rather than exact numbers.

For assay [1], the system named is leukemia SR. Also on record: method as in PMID 33248713, PMID 24090914. The note with it: Figure 1; cited from earlier work.
The subject of assay [2] is Human Embryonic Kidney (HEK) 293 cells. As to the kind of experiment: Cytotoxicity assay with non-cancerous cells (MTS). Format: cell-based. The note with it: Homo sapiens; HEK293, 72 h incubation.
Method: To evaluate the selectivity and safety profile of the synthesised CP hybrids, a cytotoxicity experiment of compounds 4a, 4b, 4e, 4i, and 4j was performed using normal Human Embryonic Kidney (HEK) 293 cells.
To evaluate the selectivity and safety profile of the synthesised ciprofloxacin-chalcone hybrids, a cytotoxicity experiment was performed using a non-cancerous cell line. Briefly, Human Embryonic Kidney (HEK) 293 cells (ATCC, Manassas, VA, USA) were cultured in a Dulbecco’s Modified Eagle Medium (DEMEM) supplemented with 1 mM sodium pyruvate, 10 mM HEPES buffer solution, 2 mM GlutaMAX (Gibco, Grand Island, NY, USA), 50 µg/mL gentamycin sulphate (Dubuque, IA, USA), and 10% foetal bovine serum (ThermoFisher Scientific, USA). Cells were seeded in 96-well plates and incubated overnight in a humidified atmosphere with 5% CO2 at 37 °C. After 24 h, cells were treated with different concentrations (0.01–100 µM) of ciprofloxacin-chalcone hybrids. Also, DMSO and doxorubicin were used as negative and positive controls, respectively. After 72 h, old medium containing treatments were removed, and fresh medium and MTS reagents (CellTiter 96® AQueous One Solution Cell Proliferation Assay, Promega, Madison, WI, USA) were added. […] After 2 h, the absorbance was measured at 490 nm using a Spectra Max plus 384 Microplate reader (Molecular Devices, Sunnyvale, CA, USA) [74]. […]
The subject of assay [3] is Caco-2. Kind of assay: MTT assay. The note with it: Homo sapiens; Caco-2, MTT assay, 24 h incubation. It counts as cell-based. How it is done:
(§1) The proliferation of colorectal cancer cells (HCT116, HT29 and Caco-2) was assessed using MTT assay as previously reported. Cells were treated with increasing concentrations of 1, 5, 10, 20, 40, 80 or 100 µM of CP hybrids 4a-j, doxorubicin, or DMSO. See Supplementary Appendix A.

The subject of assay [4] is HCT116. Kind of assay: MTT assay. The note with it: Homo sapiens, HCT-116, 24 h incubation. It counts as cell-based. Here is the method:
as §1

In assay [5] the test system is HT-29. As to the kind of experiment: MTT assay. Format: cell-based. The note with it: Homo sapiens; HT-29, MTT assay, 24 h incubation. Here is the method:
as §1

Assay [6] concerns non small lung cancer A459. Details: method as in PMID 27555286. The note with it: non small lung cancer A459, printed in Figure 1; cited from earlier work.
In assay [7] the test system is normal lung fibroblast WI-38. Also on record: method as in PMID 27555286. The note with it: normal lung fibroblast WI-38, printed in Figure 1; cited from earlier work.
Details of assay [8]: method as in PMID 33248713, PMID 24090914. The note with it: Figure 1; cited from earlier work.
Assay [9] deals with MCF-7 cancer cell lines. Also on record: method as in earlier work. The note with it: cited from earlier work.
Assay [10] deals with tubulin polymerisation. Kind of assay: Tubulin immunofluorescence microscopy in HCT116 cells. It counts as cell-based, human. The note with it: HCT116, IC50 of compound, 36 h. How it is done:
(§2) The process of tubulin polymerisation in the cells is important for the completion of mitosis and is targeted for cancer treatment. It has been reported that the suppression of tubulin polymerisation will arrest the cells at the G2/M and it eventually leads to cell death. To test the tubulin-disruptive effect of the CP hybrids, HCT116 cells were analysed by immunocytochemistry. HCT116 cells were incubated for 36 h with IC50 of the CP hybrids (4a, 4b, 4e, 4i, and 4j), nocodazole (a well-known tubulin polymerisation inhibitor, as a positive control), DMSO or Paclitaxel (a well-known tubulin polymerisation inducer, as a negative control), and tubulin was visualised by immunofluorescence microscopy. An antibody for α-tubulin was used. […] Moreover, a Western blot was performed to verify the tubulin polymerisation inhibition ability of the synthesised compounds (Figure 8(B)). The level of polymerised tubulin was decreased in HCT116 cells treated with IC50 values of CP hybrids 4a, 4b, 4e, 4i, 4j, or nocodazole.
HCT116 cells were cultured and treated with the IC50 of the potent compounds (4a, 4b, 4e, 4i, and 4j) or DMSO (control), fixed, permeabilized, and they were incubated with either γH2AX or α-tubulin antibody as the reported procedure in the literature. Confocal images were captured using a Confocal Microscope with a 63X objective. All images were processed using ImageJ software. See Supplementary Appendix A.

Assay [11] deals with polymerised tubulin. Kind of assay: Western blot of polymerised tubulin in HCT116 cells. The note with it: HCT116, IC50 values of compounds. Format: cell-based, human. How it is done: as §2
Western blotting analysis for HCT116 cells was performed according to the reported procedure in the literature[77–79] to determine the effects of CP hybrids; 4a, 4b, 4e, 4i, and 4j on the expression of polymerised tubulin, γH2AX, p-ATR, p-CHK1, and p-Cdc25C by using the appropriate antibody. See Supplementary Appendix A.

As for `CC[C@@]1(O)C(=O)OCc2c1cc1n(c2=O)Cc2cc3ccccc3nc2-1` [Camptothecin], the IC50 in assay [1] is 3.32 µM.

In the case of `COc1cccc2c1C(=O)c1c(O)c3c(c(O)c1C2=O)C[C@@](O)(C(=O)CO)C[C@@H]3O[C@H]1C[C@H](N)[C@H](O)[C@H](C)O1` [Doxorubicin, reference compound], the IC50 in assay [2] worked out at 0.0475 µM; in assay [3], 4.15 ± 1.08 µM; in assay [4] it was 1.22 ± 0.27 µM; in [5], 0.88 ± 0.58 µM.

As for `O=C(CN1CCN(c2cc3c(cc2F)c(=O)c(C(=O)O)cn3C2CC2)CC1)Nc1ccc(Cl)cc1` [III], the IC50 was 14.8 µM in [6] and more than 100 µM in assay [7].

With `COc1cc(/C=C/C(=O)c2ccc(NC(=O)N3CCN(c4cc5c(cc4F)c(=O)c(C(=O)O)cn5C4CC4)CC3)cc2)cc(OC)c1OC` [II], the IC50 in assay [1] was 0.64 µM.

As for `O=C(CN1CCN(c2cc3c(cc2F)c(=O)c(C(=O)O)cn3C2CC2)CC1)Nc1ccc(C(=O)/C=C/c2ccccc2)cc1` [I], the GI50 in assay [8] was 0.43 to 39.6 µM.

In the case of `CCOc1cc(/C=C/C(=O)c2cccc(O)c2)ccc1OCc1cn(-c2cc(Cl)ccc2O)nn1` [X], the half-maximal inhibitory concentration (IC50) in assay [9] (MCF-7, 24 h) was 1.27 µM; in assay [9] (MCF-7, 48 h) it was 0.02 µM.

Turning to `COC(=O)Nc1nc2ccc(C(=O)c3cccs3)cc2[nH]1` [nocodazole, reference compound], in assay [10], the “tubulin polymerisation, morphological changes by immunofluorescence” value is reported as “significant tubulin polymerisation inhibition”. Besides, the “level of polymerised tubulin, Western blot” value in [11] is “decreased”.
